Square brackets hold non-standard residues; d marks the D form. Peptide text beside a SMILES is read from it. * marks the point of attachment. d2Nal = N[C@H](Cc1ccc2ccccc2c1)C(=O)O; dPhg = N[C@@H](C(=O)O)c1ccccc1; Boc = CC(C)(C)OC(=O)*
How the values were obtained:
Format in all cases: biochemical
[1] = target: T1, Human α-thrombin (Homo sapiens, UniProt P00734); experiment: Thrombin assay, chromogenic substrate S2238; settings: 100 times the IC50 for factor Xa divided by the IC50 of thrombin
T1 construct: Human α-thrombin was obtained from Enzyme Research Laboratories, Inc; purchased Enzyme Research Laboratories, Inc
Procedure: (§1) To assay their activities, the compounds of the present invention are dissolved in buffer to give solutions containing concentrations ranging under assay concentrations from 0 to about 100 μM. The enzyme to be tested is then added to a solution containing a specified concentration of the test compound. Then after an incubation period, synthetic substrate for the enzyme being tested is added. The rate of substrate turnover is determined spectrophotometrically. The IC50 of the test compound is determined for each test compound in assays for factor xa, factor XIa, thrombin and tPA. IC50 is that concentration of test compound giving 50% inhibition of the substrate turnover. Percent selectivity is used to indicate selectivity of a compound in inhibiting Factor Xa in comparison with either Factor XIa, thrombin or tPA. Percent selectivity of a particular compound for either Factor XIa, thrombin or tPA refers to a number obtained by dividing the product of one hundred and the IC50 of the compound for Factor Xa by the IC50 of the compound for either Factor XIa, thrombin or tPA.
(§2) The specificity of the peptide aldehydes through was determined in vitro by measurement of their IC50 against factor Xa, factor XIa, thrombin and tissue plasminogen activator (tPA). Peptide aldehyde which has been described in the art was run as a comparison. A specific concentration of enzyme and its substrate were challenged with varying concentrations of inhibitor. IC50 is that concentration of inhibitor giving 50% inhibition of catalytic activity, under the assay conditions. Specific assay procedures used are presented below.
Enzyme activity was determined using as substrate, S2238 (D-phenylalanyl-L-pipecolyl-L-arginine-p-nitroanilide dihydrochloride) which was obtained from Kabi Diagnostica. The substrate was made up in deionized water prior to use.
Human α-thrombin was obtained from Enzyme Research Laboratories, Inc. The enzyme was diluted into TBSA prior to use.
The assay was run by combining in appropriate wells 50 μL of TBSA, 50 μL of inhibitor in TBSA or TBSA (as negative control) and 50 μL of 4 nM human α-thrombin or TBSA (as background control). After incubating this mixture for 60 minutes at room temperature, 50 μL of 0.24 mM S-2238 was added to each well and the initial rate of the change of optical density at 405 nm (OD405nm) for each well was determined. OD405nm was measured every 10 seconds for 5 minutes.

[2] = target: T2, Human factor XIa (Homo sapiens, UniProt P03951); experiment: Factor XIa assay, chromogenic substrate S2366; settings: 100 times the IC50 for factor Xa divided by the IC50 of factor XIa
T2 construct: purchased Enzyme Research Laboratories, Inc
Procedure: as §1, §2
Enzyme activity was determined using as substrate, S2366 (L-pyroglutamyl-L-prolyl-L-arginine-p-nitroanilide hydrochloride) which was obtained from Kabi Diagnostica. The substrate was made up in deionized water prior to use.
Human factor XIa was obtained from Enzyme Research Laboratories, Inc. The enzyme was diluted into TBSA prior to use.
The assay was run by combining in appropriate wells 50 μL of TBSA, 50 μL of inhibitor in TBSA or TBSA (as negative control) and 50 μL of 2 nM human Factor XIa or TBSA (as background control). After incubating this mixture for 60 minutes at room temperature, 50 μL of 6 mM S-2366 was added to each well and the initial rate of the change of the optical density at 405 nm (OD405nm) for each well was determined. OD405nm was measured every 10 seconds for 5 minutes.

[3] = target: T3, Human recombinant t-PA (Activase®) (Homo sapiens, UniProt P00750); experiment: tPA assay, chromogenic substrate Pefachrome tPA; settings: 100 times the IC50 for factor Xa divided by the IC50 of tPA
T3 construct: purchased Genentech, Inc
Procedure: as §1, §2
Enzyme activity was determined using as substrate, Pefachrome tPA (O-methylsulfonate-D-hexahydrotyrosine-L-glycyl-L-argini ne-p-nit roanilide acetate salt) which was obtained from Centerchem, Inc. The substrate was made up in deionized water prior to use.
Human recombinant t-PA (Activase®) was obtained from Genentech, Inc. The enzyme was reconstituted with water, then diluted into TBSA prior to use.
The assay was run by combining in appropriate wells 50 μL of TBSA, 50 μL of inhibitor in TBSA or TBSA (as negative control) and 50 μL of 4 nM human recombinant tPA or TBSA (as background control). After incubating this mixture for 60 minutes at room temperature, 50 μL of 4 mM Pefachrome tPA was added to each well and the initial rate of the change of optical density at 405 nm (OD405nm) for each well was determined. OD405nm was measured every 10 seconds for 5 minutes.

[4] = target: T4, Human factor Xa (Homo sapiens, UniProt P00742); experiment: Factor Xa assay, chromogenic substrate S2765; settings: taken as 100 for each inhibitor by definition
T4 construct: purchased Enzyme Research Laboratories
Procedure: as §1, §2
Enzyme activity was determined using as substrate, S2765 (N-α-benzyloxycarbonyl-D-argininyl-L-glycyl-L-arginine-p-nitroanilide dihydrochloride) which was obtained from Kabi Diagnostica. The substrate was made up in deionized water prior to use.
Human factor Xa was obtained from Enzyme Research Laboratories. The enzyme was diluted into TBSA prior to use.
The assay was run by combining in appropriate wells 50 μL of TBSA, 50 μL of inhibitor in TBSA or TBSA (as negative control) and 50 μL of 2 nM human Factor Xa or TBSA (as background control). After incubating this mixture for 60 minutes at room temperature, 50 μL of 1 mM S-2765 was added to each well and the initial rate of the change of the optical density at 405 nm (OD405nm) for each well was determined. OD405nm was measured every 10 seconds for 5 minutes.

T3 sequence (P00750 36-562): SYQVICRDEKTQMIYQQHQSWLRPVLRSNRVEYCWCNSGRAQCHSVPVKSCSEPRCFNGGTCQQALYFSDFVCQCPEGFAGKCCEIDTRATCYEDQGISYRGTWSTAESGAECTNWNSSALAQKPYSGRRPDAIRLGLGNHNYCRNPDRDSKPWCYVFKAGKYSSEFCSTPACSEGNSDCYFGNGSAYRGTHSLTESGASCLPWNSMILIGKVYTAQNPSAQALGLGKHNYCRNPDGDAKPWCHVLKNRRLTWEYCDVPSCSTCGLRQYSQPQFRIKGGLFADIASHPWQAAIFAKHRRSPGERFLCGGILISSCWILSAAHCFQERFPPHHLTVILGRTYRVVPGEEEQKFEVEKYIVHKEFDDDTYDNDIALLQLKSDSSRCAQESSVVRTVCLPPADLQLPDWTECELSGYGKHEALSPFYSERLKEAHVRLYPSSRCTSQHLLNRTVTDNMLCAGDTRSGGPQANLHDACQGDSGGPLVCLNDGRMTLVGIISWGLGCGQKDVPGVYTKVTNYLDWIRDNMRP
T4 sequence (P00742 235-488 limits assumed): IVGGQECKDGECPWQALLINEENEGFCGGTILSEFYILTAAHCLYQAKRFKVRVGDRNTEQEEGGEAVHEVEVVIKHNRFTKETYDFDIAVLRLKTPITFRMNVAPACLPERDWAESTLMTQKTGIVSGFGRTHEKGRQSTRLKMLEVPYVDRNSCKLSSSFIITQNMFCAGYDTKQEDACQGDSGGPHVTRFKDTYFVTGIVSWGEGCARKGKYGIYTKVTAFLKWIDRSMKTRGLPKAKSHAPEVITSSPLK
T4 sequence (P00742 41-179 partner limits assumed): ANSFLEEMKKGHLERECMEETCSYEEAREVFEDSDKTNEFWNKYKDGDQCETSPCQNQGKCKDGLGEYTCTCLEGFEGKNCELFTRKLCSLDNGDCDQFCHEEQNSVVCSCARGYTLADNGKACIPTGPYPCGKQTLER
T2 sequence (P03951 388-625 limits assumed): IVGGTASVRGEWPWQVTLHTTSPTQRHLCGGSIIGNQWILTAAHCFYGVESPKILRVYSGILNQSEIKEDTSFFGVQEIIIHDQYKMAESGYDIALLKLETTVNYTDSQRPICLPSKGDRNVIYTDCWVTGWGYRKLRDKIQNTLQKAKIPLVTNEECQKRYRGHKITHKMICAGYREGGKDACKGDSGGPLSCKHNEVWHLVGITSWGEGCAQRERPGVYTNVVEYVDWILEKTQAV
T2 sequence (P03951 19-387 partner limits assumed): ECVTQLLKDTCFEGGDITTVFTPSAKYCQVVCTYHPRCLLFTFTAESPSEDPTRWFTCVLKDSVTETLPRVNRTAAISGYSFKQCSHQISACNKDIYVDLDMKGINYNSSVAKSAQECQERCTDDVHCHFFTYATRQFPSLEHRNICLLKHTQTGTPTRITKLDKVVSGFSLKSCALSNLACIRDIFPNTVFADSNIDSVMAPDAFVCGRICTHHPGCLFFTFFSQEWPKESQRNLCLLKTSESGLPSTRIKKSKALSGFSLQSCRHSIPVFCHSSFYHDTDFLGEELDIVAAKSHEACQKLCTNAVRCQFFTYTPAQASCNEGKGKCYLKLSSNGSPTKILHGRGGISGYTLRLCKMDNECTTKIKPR

Compound | Percent Selectivity Thrombin [1] | Percent Selectivity XIa [2] | Percent Selectivity tPA [3] | Percent Selectivity Xa [4]
CC(C)(C)OC(=O)N[C@H](Cc1ccccc1)C(=O)N1CC[C@H](c2ccccc2)[C@H]1C(=O)N[C@H](C=O)CCCNC(=N)N (relative stereo) [[10], N-t-butoxycarbonyl-D-phenylalanyl-L-(3-trans-phenyl)prolinyl-L-argininal] | < 2.5 | < 2.5 | < 2.5 | 100
CC(C)(C)OC(=O)N[C@H](Cc1ccc2ccccc2c1)C(=O)N[C@@H](Cc1ccccc1)C(=O)N[C@H](C=O)CCCNC(=N)N [[1], N-t-butoxycarbonyl-D-3-(2-naphthyl)alanyl-L-phenylalanyl-L-araininal] (Boc-[d2Nal]-Phe-Arg-aldehyde) | 1.6 | 1.4 | < 0.9 | 100
CC(C)(C)OC(=O)N[C@@H](C(=O)N[C@@H](Cc1ccccc1)C(=O)N[C@H](C=O)CCCNC(=N)N)c1ccccc1 [[2], N-t-butoxycarbonyl-D-2-phenylglycyl-L-phenylalanyl-L-araininal] (Boc-[dPhg]-Phe-Arg-aldehyde) | < 2.6 | 4.9 | < 2.6 | 100
CC(C)(C)OC(=O)N[C@H](Cc1ccccc1)C(=O)N[C@@H](Cc1ccccc1)C(=O)N[C@H](C=O)CCCNC(=N)N [[4], N-t-butoxycarbonyl-D-phenylalanyl-L-phenylalanyl-L-argininal] (Boc-[dF]-Phe-Arg-aldehyde) | < 0.8 | 0.8 | < 0.8 | 100
CC(C)(C)OC(=O)NC(C(=O)N[C@@H](Cc1cccc2ccccc12)C(=O)N[C@H](C=O)CCCNC(=N)N)c1ccc(-c2ccccc2)cc1 (stereo partly drawn) [[7], N-t-butoxycarbonyl-D,L-(α-biphenyl)qlycyl-L-3-(1-naphthyl)alanyl-L-argininal] | < 10 | < 10 | < 10 | 100
